For one assay, the system named is MDA-MB-231 cells. Put plainly: CellTiter-Glo Luminescent Cell Viability Assay on ER-negative breast cancer MDA-MB-231 cells. The format is cell-based. The note with it: average ± standard deviation when tested more than 3 times, read-out: Inhibition of the viability of breast cancer cells, IC50. On the procedure:
A: In Vitro CellTiter-Glo® Luminescent Cell Viability Assay on ER-Negative Breast Cancer MDA-MB-231 Cells:
MDA-MB-231 cells were maintained at 37° C., under 5% CO2 atmosphere in DMEM containing 10% fetal calf serum. The cells were seeded on 96-well plate at a density of 6×10^3 cells per well. MDA-MB-231 cells were treated with a test compound dissolved in DMSO at the concentrations of zero, 0.3 μM, 0.5 μM, 1 μM, 2 μM, 3 μM, 5 μM, 10 μM, 20 μM, 30 μM, 50 μM and 100 μM for 72 hours. Treated cells were examined by CellTiter-Glo® Luminescent Cell Viability Assay Kit (Promega), and luminescence values were recorded with Envision.
In general terms: Cellular ATP, detected with luciferase, serves as a proxy for viable cell number.

For another assay, the system named is MCF7 cells. Put plainly: CellTiter-Glo Luminescent Cell Viability Assay on ER-positive breast cancer MCF-7 cells. The note with it: average ± standard deviation when tested more than 3 times, read-out: Inhibition of the viability of breast cancer cells, IC50. Type of assay: cell-based, human. An excerpt: B: In Vitro CellTiter-Glo® Luminescent Cell Viability Assay on ER-Positive Breast Cancer MCF-7 Cells:
MCF7 cells are breast cancer cell lines that highly express ER-66, ER-46 and ER-36. (Relevance of breast cancer cell lines as models for breast tumours: an update. Marc Lacroix, Guy Leclercq, Breast Cancer Research and Treatment (2004) 83, 249-289; Wang et al., Proc. Natl. Acad. Sci. U.S.A. 103:9063-9068 (2006)). MCF7 cells were obtained from ATCC and maintained in Dulbecco's Modified Eagles Medium (DMEM) and 10% fetal calf serum at 37° C., under 5% CO2 atmosphere. The cells were seeded on 96-well plate at a density of 6×10^3 cells per well. MCF7 cells were treated with a test compound dissolved in DMSO at the concentrations of zero, 0.3 μM, 0.5 μM, 1 μM, 2 μM, 3 μM, 5 μM, 10 μM, 20 μM, 30 μM, 50 μM and 100 μM for 72 hours. Treated cells were examined by CellTiter-Glo® Luminescent Cell Viability Assay Kit (Promega), and luminescence values were recorded with Envision.

In another assay the test system is Hep3B2.1-7 cells. Put plainly: MTT assay, in vitro growth of liver cancer Hep3B2.1-7 cells. Type of assay: cell-based. The note with it: 72 hours; for IC50: read-out: Inhibition on liver cancer cells, IC50. The method, then:
The liver cancer Hep3B2.1-7 cells were obtained from ATCC. Cells were incubated in 1640 culture medium with 5% fetal calf serum and 100 U/ml double-antibody in a cell incubator at 37° C., 5% CO2 atmosphere and passaged via conventional methods. The sample was dissolved in DMSO, formulated into 50 mg/ml stocking solution, and stored at 4° C. The test solutions at 50, 25, 12.5 and 6.25 μg/ml were formulated with culture medium immediately before use.
The adherent cells were digested with cell digestive solution, and then the exfoliated cells were collected and counted. The cell suspension was formulated with 1640 culture medium containing 5% fetal calf serum (5.0×10^4/ml). The cell suspension was seeded on 96-well plate with 100 μl/well, and maintained in a cell incubator at 37° C., 5% CO2 atmosphere for 24 hours. After that, the compounds at various concentrations were added, where solvent was taken as negative control and Taxol as positive control. 10 μl MTT (5 mg/ml) was added after 72 hours. The supernatant was removed after cultivation for 3 hours more, 150 μl DMSO was added and the formazan was dissolved on shaking. OD values were measured at 570 nm after homogeneous mixing, and inhibition rate and IC50 values were calculated based on the mean of OD values from 3 wells.
(Tetrazolium dyes change colour on reduction, which living cells bring about.)

In brackets after ≈: the same amount, converted by molar mass. Read-outs that look alike come from different tables or passages of the source. Bounds are passed on as bounds.

The term IC50 denotes the midpoint of a concentration-inhibition curve. In the case of “2-(4-fluoromethoxyphenyl)-5,7-dihydroxy-3-methoxy-6,8-di(3-methyl-2-buten-1-yl)-4H-benzopyran-4-one [Compound 61]”, the results for the IC50 in the assay with MDA-MB-231 cells (72 hours) and with MCF7 cells (72 hours) were 3.28 µM and 3.52 µM, respectively. In addition, in the assay with Hep3B2.1-7 cells, the “Inhibition on liver cancer cells, IC50” value worked out at 0.04 µg/mL.
On the same counts, the results for `COc1c(-c2ccc(Cl)cc2)oc2c(CC=C(C)C)c(O)c(CC=C(C)C)c(O)c2c1=O` [Compound 10, 2-(4-chlorophenyl)-5,7-dihydroxy-3-methoxy-6,8-di(3-methyl-2-butylene-1-yl)-4H-benzopyran-4-one] are 8.89 µM, over 100 µM and 9.43 µg/mL.
Take `COc1c(-c2ccc(C#N)cc2)oc2c(CC=C(C)C)c(O)c(CC=C(C)C)c(O)c2c1=O` [Compound 57, 4-[5,7-dihydroxy-3-methoxy-6,8-di(3-methyl-2-butenyl)-4-oxo-4H-benzopyran-2-yl]benzonitrile]: the IC50 was found to be 2.85 µM in the assay with MDA-MB-231 cells (Homo sapiens, MDA-MB-231, 72 h); 4.84 µM in the assay with MCF7 cells (Homo sapiens, MCF7, 72 h); 21 µg/mL (≈ 47.2 µM) with Hep3B2.1-7 cells.
The corresponding values for `COc1c(-c2ccc(C(N)=O)cc2)oc2c(CC=C(C)C)c(O)c(CC=C(C)C)c(O)c2c1=O` [Compound 60, 4-[5,7-dihydroxy-3-methoxy-6,8-di(3-methyl-2-buten-1-yl)-4-oxo-4H-benzopyran-2-yl]benzamide] are 6.36 µM, 3.02 µM and 9.95 µg/mL (≈ 21.5 µM).
Take `COc1c(-c2ccc(S(N)(=O)=O)cc2)oc2c(CC=C(C)C)c(O)c(CC=C(C)C)c(O)c2c1=O` [Compound 63, 4-[5,7-dihydroxy-3-methoxy-6,8-di(3-methyl-2-buten-1-yl)-4-oxo-4H-benzopyran-2-yl]benzene sulfonamide]: the 50% inhibitory concentration (IC50) was found to be 4.87 µM in the assay with MDA-MB-231 cells (Homo sapiens, MDA-MB-231, 72 h); 6.06 µM with MCF7 cells (Homo sapiens, MCF7, 72 h); 14 µg/mL (≈ 28 µM) in the assay with Hep3B2.1-7 cells.
For the compound `COc1c(-c2ccc(C(C)(C)O)cc2)oc2c(CC=C(C)C)c(O)c(CC=C(C)C)c(O)c2c1=O` [Compound 66], the IC50 was found to be 2.86 µM in the assay with MDA-MB-231 cells (72 hours) and 3.91 µM in the assay with MCF7 cells (72 hours). Moreover, the “Inhibition on liver cancer cells, IC50” value in the assay on Hep3B2.1-7 cells came to 0.24 µg/mL.
For `COc1c(-c2ccc(S(=O)(=O)N(C)C)cc2)oc2c(CC=C(C)C)c(O)c(CC=C(C)C)c(O)c2c1=O` [Compound 69, 4-[5,7-dihydroxy-3-methoxy-6,8-di(3-methyl-2-buten-1-yl)-4-oxo-4H-benzopyran-2-yl]-N,N-dimethylbenzene sulfonamide], the IC50 in the assay on MDA-MB-231 cells (Homo sapiens, MDA-MB-231, 72 h) was 1.87 µM; in the assay on MCF7 cells (Homo sapiens, MCF7, 72 h) it was over 100 µM; in the assay with Hep3B2.1-7 cells, 3.89 µg/mL (≈ 7.37 µM).
The corresponding values for `CNS(=O)(=O)c1ccc(-c2oc3c(CC=C(C)C)c(O)c(CC=C(C)C)c(O)c3c(=O)c2OC)cc1` [Compound 70, 4-[5,7-dihydroxy-3-methoxy-6,8-di(3-methyl-2-buten-1-yl)-4-oxo-4H-benzopyran-2-yl]N-methylbenzene sulfonamide] are 7.64 µM, over 100 µM and 0.39 µg/mL (≈ 0.759 µM).
For `COc1c(-c2ccc(O)c(C)c2)oc2c(CC=C(C)C)c(O)c(CC=C(C)C)c(O)c2c1=O` [Compound 75, 2-(3-methyl-4-hydroxyphenyl)-5,7-dihydroxy-3-methoxy-6,8-di(3-methyl-2-buten-1-yl)-4H-benzopyran-4-one], the half-inhibitory concentration (IC50) was 11.6 µM in the assay on MDA-MB-231 cells (Homo sapiens, MDA-MB-231, 72 h); 49 µM in the assay with MCF7 cells (Homo sapiens, MCF7, 72 h); 0.83 µg/mL (≈ 1.84 µM) with Hep3B2.1-7 cells.
On the same counts, the results for `COc1c(-c2ccc(O)c(Cl)c2)oc2c(CC=C(C)C)c(O)c(CC=C(C)C)c(O)c2c1=O` [Compound 76, 2-(3-chloro-4-hydroxyphenyl)-5,7-dihydroxy-3-methoxy-6,8-di(3-methyl-2-buten-1-yl)-4H-benzopyran-4-one] are 3 µM, 4.08 µM and 5.79 µg/mL (≈ 12.3 µM).
In the case of `CC(C)=CCc1c(O)c(CC=C(C)C)c2oc(-c3ccc(F)c(F)c3)cc(=O)c2c1O` [Compound 85, 2-(3,4-difluorophenyl)-5,7-dihydroxy-6,8-di(3-methyl-2-buten-1-yl)-4H-benzopyran-4-one], the IC50 with MDA-MB-231 cells (Homo sapiens, MDA-MB-231, 72 h) was over 100 µM; in the assay with MCF7 cells (Homo sapiens, MCF7, 72 h) it was over 100 µM.
On to `CC(C)=CCc1c(O)c(CC=C(C)C)c2oc(-c3ccc(Cl)c(F)c3)cc(=O)c2c1O` [Compound 86, 2-(3-fluoro-4-chlorophenyl)-5,7-dihydroxy-6,8-di(3-methyl-2-buten-1-yl)-4H-benzopyran-4-one], for which the IC50 with MDA-MB-231 cells (Homo sapiens, MDA-MB-231, 72 h) is over 100 µM; with MCF7 cells (Homo sapiens, MCF7, 72 h) it was over 100 µM.
For `CC(C)=CCc1c(O)c(CC=C(C)C)c2oc(-c3ccc(C)cc3)cc(=O)c2c1O` [Compound 87, 2-(4-methylphenyl)-5,7-dihydroxy-6,8-di(3-methyl-2-buten-1-yl)-4H-benzopyran-4-one], the half-inhibitory concentration (IC50) in the assay with MDA-MB-231 cells (Homo sapiens, MDA-MB-231, 72 h) was 16.3 µM; in the assay on MCF7 cells (Homo sapiens, MCF7, 72 h), over 100 µM.
On the same counts, the results for `CC(C)=CCc1c(O)c(CC=C(C)C)c2oc(-c3ccc(Cl)c(Cl)c3)cc(=O)c2c1O` [Compound 88, 2-(3,4-dichlorophenyl)-5,7-dihydroxy-6,8-di(3-methyl-2-buten-1-yl)-4H-benzopyran-4-one] are 16.1 µM and over 100 µM.
The corresponding values for `CC(C)=CCc1c(O)c(CC=C(C)C)c2oc(-c3ccc(F)cc3)cc(=O)c2c1O` [Compound 89, 2-(4-fluorophenyl)-5,7-dihydroxy-6,8-di(3-methyl-2-buten-1-yl)-4H-benzopyran-4-one] are over 100 µM and over 100 µM.
The corresponding values for `CC(C)=CCc1c(O)c(CC=C(C)C)c2oc(-c3ccc(Cl)cc3)cc(=O)c2c1O` [Compound 91, 2-(4-chlorophenyl)-5,7-dihydroxy-6,8-di(3-methyl-2-buten-1-yl)-4H-benzopyran-4-one] are 8.89 µM and over 100 µM.
Regarding `CC(C)=CCc1c(O)c(CC=C(C)C)c2oc(-c3cccnc3)cc(=O)c2c1O` [Compound 92, 2-(pyridin-3-yl)-5,7-dihydroxy-6,8-di(3-methyl-2-buten-1-yl)-4H-benzopyran-4-one], the IC50 in the assay on MDA-MB-231 cells (Homo sapiens, MDA-MB-231, 72 h) is 21.5 µM; in the assay with MCF7 cells (Homo sapiens, MCF7, 72 h) it was over 100 µM.
The corresponding values for `CC(C)=CCc1c(O)c(CC=C(C)C)c2oc(-c3ccc(F)c(F)c3)c(C)c(=O)c2c1O` [Compound 93, 2-(3,4-difluorophenyl)-3-methyl-5,7-dihydroxy-6,8-di(3-methyl-2-buten-1-yl)-4H-benzopyran-4-one] are 27.5 µM and 15.6 µM.
The corresponding values for `CC(C)=CCc1c(O)c(CC=C(C)C)c2oc(-c3ccc(Cl)c(F)c3)c(C)c(=O)c2c1O` [Compound 94, 2-(3-fluoro-4-chlorophenyl)-3-methyl-5,7-dihydroxy-6,8-di(3-methyl-2-buten-1-yl)-4H-benzopyran-4-one] are 31.3 µM and 15.6 µM.
The corresponding values for `CC(C)=CCc1c(O)c(CC=C(C)C)c2oc(-c3ccc(F)c(F)c3)c(O)c(=O)c2c1O` [Compound 95, 2-(3,4-difluorophenyl)-3,5,7-trihydroxy-6,8-di(3-methyl-2-buten-1-yl)-4H-benzopyran-4-one] are 10.4 ± 1.93 µM and 6.62 ± 1.93 µM.
For the compound `CC(C)=CCc1c(O)c(CC=C(C)C)c2oc(-c3ccc(Cl)c(F)c3)c(O)c(=O)c2c1O` [Compound 96, 2-(3-fluoro-4-chlorophenyl)-3,5,7-trihydroxy-6,8-di(3-methyl-2-buten-1-yl)-4H-benzopyran-4-one], the IC50 was 10.4 µM in the assay on MDA-MB-231 cells (Homo sapiens, MDA-MB-231, 72 h) and over 100 µM with MCF7 cells (Homo sapiens, MCF7, 72 h).
For the compound `CC(=O)O[C@H]1C(=O)[C@@]2(C)[C@H]([C@H](OC(=O)c3ccccc3)[C@]3(O)C[C@H](OC(=O)[C@H](O)[C@@H](NC(=O)c4ccccc4)c4ccccc4)C(C)=C1C3(C)C)[C@]1(OC(C)=O)CO[C@@H]1C[C@@H]2O` [Taxol, reference compound], in the assay on Hep3B2.1-7 cells, the IC50 came to 42.8 µg/mL (≈ 50.1 µM).
